Literature values in patent publication US7339052B2, “Phosphoramidite activator for oligonucleotide synthesis” (Honeywell International Inc., priority 2005, dated 2008).

maximum solubility in acetonitrile: about 0.33 M
Compound: c1ccc(CSc2nnn[nH]2)cc1 [BMT, 5-benzylmercaptotetrazole]
